The nature of test [1]: Inhibition of necroptosis in mouse L929 cells assessed as reduction in TNFalpha/BV6/zVAD-fmk-induced cell death incubated for 18 hrs by Cell Titer Glo luminescent cell viability assay. Particulars: L929, 18 h. The test is classed as functional, cell-based.
For test [2], the target named is Interleukin-1 receptor-associated kinase 4 (Homo sapiens) (UniProt Q9NWZ3). The test is described as follows: Inhibition of recombinant human His-tagged full length IRAK4 expressed in baculovirus expression system using Ser/Thr 07 as substrate at 10 uM incubated for 60 mins by Z'-Lyte assay relative to control.
Test [3] addresses Casein kinase I isoform alpha (Homo sapiens) (UniProt P48729). The test is described as follows: Inhibition of recombinant human GST-tagged full length CK1alpha1 expressed in baculovirus expression system using Ser/Thr 11 as substrate at 10 uM incubated for 60 mins by Z'-Lyte assay relative to control.
In test [4] the target is Casein kinase I isoform epsilon (Homo sapiens) (UniProt P49674). The test is described as follows: Inhibition of recombinant human His-tagged full length CK1epsilon expressed in baculovirus expression system using Ser/Thr 11 as substrate at 10 uM incubated for 60 mins by Z'-Lyte assay relative to control.
Test [5] has as its target Calcium/calmodulin-dependent protein kinase type II subunit beta (Homo sapiens) (UniProt Q13554). The test is described as follows: Inhibition of recombinant human His-tagged full length CAMK2beta expressed in baculovirus expression system using Ser/Thr 04 as substrate at 10 uM incubated for 60 mins by Z'-Lyte assay relative to control.
For test [6], the target named is Serine/threonine-protein kinase DCLK2 (Homo sapiens) (UniProt Q8N568). The test is described as follows: Inhibition of recombinant human GST-tagged full length DCAMKL2 expressed in baculovirus expression system using Ser/Thr 17 as substrate at 10 uM incubated for 60 mins by Z'-Lyte assay relative to control.
In test [7] the target is Dual specificity tyrosine-phosphorylation-regulated kinase 4 (Homo sapiens) (UniProt Q9NR20). The test is described as follows: Inhibition of recombinant human GST-tagged full length DYRK4 expressed in baculovirus expression system using Ser/Thr 9 as substrate at 10 uM incubated for 60 mins by Z'-Lyte assay relative to control.
Test [8] deals with Epidermal growth factor receptor (Homo sapiens), P00533 [L858R,T790M]. The test can be described thus: Inhibition of recombinant human GST-tagged EGFR T790M/L858R double mutant (668 to 1210 residues) expressed in baculovirus expression system using Tyr 4 as substrate at 10 uM incubated for 60 mins by Z'-Lyte assay relative to control.
In test [9] the target is Tyrosine-protein kinase Fes/Fps (Homo sapiens) (UniProt P07332). The test can be described thus: Inhibition of recombinant human His-tagged full length FES expressed in baculovirus expression system using Tyr 01 as substrate at 10 uM incubated for 60 mins by Z'-Lyte assay relative to control.
Test [10] has as its target Homeodomain-interacting protein kinase 1 (Homo sapiens) (UniProt Q86Z02). The test is described as follows: Inhibition of recombinant human N-terminal GST-tagged HIPK1 (158 to 555 residues) expressed in baculovirus expression system using Ser/Thr 09 as substrate at 10 uM incubated for 60 mins by Z'-Lyte assay relative to control.
The target of test [11] is MAP kinase-activated protein kinase 3 (Homo sapiens) (UniProt Q16644). The test is described as follows: Inhibition of recombinant human His-tagged full length MAPKAPK3 expressed in baculovirus expression system using Ser/Thr 04 as substrate at 10 uM incubated for 60 mins by Z'-lyte assay relative to control.
Test [12] deals with MAP/microtubule affinity-regulating kinase 3 (Homo sapiens) (UniProt P27448). The test can be described thus: Inhibition of recombinant human GST-tagged full length MARK3 expressed in baculovirus expression system using Ser/Thr 25 as substrate at 10 uM incubated for 60 mins by Z'-lyte assay relative to control.
The target in test [13] is MAP kinase-interacting serine/threonine-protein kinase 1 (Homo sapiens) (UniProt Q9BUB5). The test is described as follows: Inhibition of recombinant human GST-tagged full length MKNK1 expressed in insect expression system using Ser/Thr 07 as substrate at 10 uM incubated for 60 mins by Z'-lyte assay relative to control.
The target in test [14] is MAP kinase-interacting serine/threonine-protein kinase 2 (Homo sapiens) (UniProt Q9HBH9). The test can be described thus: Inhibition of tracer 236 binding to recombinant human N-terminal GST-tagged full length MKNK2 expressed in baculovirus expression system at 10 uM incubated for 60 mins by Lanthascreen assay relative to control. (In general: TR-FRET usually uses a lanthanide donor and a delayed reading to cut background.)

Test [15] addresses Mitogen-activated protein kinase kinase kinase 10 (Homo sapiens) (UniProt Q02779). The test can be described thus: Inhibition of tracer 236 binding to recombinant human GST-tagged full length MLK2 expressed in baculovirus expression system at 10 uM incubated for 60 mins by Lanthascreen assay relative to control.
For test [16], the target named is Serine/threonine-protein kinase Nek6 (Homo sapiens) (UniProt Q9HC98). The test can be described thus: Inhibition of recombinant human GST-tagged full length NEK6 expressed in insect expression system using Ser/Thr 22 as substrate at 10 uM incubated for 60 mins by Z'-lyte assay relative to control.
The next test is filed under the species Homo sapiens. The test is described as follows: Inhibition of recombinant human His-tagged PKA (1 to 351 residues) expressed in Escherichia coli expression system using Ser/Thr 01 as substrate at 10 uM incubated for 60 mins by Z'-lyte assay relative to control.
In test [17] the target is Protein kinase C epsilon type (Homo sapiens) (UniProt Q02156). The test is described as follows: Inhibition of recombinant human GST-tagged full length PKCepsilon expressed in insect expression system using Ser/Thr 07 as substrate at 10 uM incubated for 60 mins by Z'-lyte assay relative to control.
For test [18], the target named is Receptor-interacting serine/threonine-protein kinase 2 (Homo sapiens) (UniProt O43353). The test can be described thus: Inhibition of tracer 178 binding to recombinant human His-tagged RIPK2 (1 to 299 residues) expressed in insect expression system at 10 uM incubated for 60 mins by Lanthascreen assay relative to control.
For test [19], the target named is TGF-beta receptor type-1 (Homo sapiens) (UniProt P36897). The test can be described thus: Inhibition of tracer 178 binding to recombinant human N-terminal GST-tagged TGFBR1 (200 to 503 residues) expressed in baculovirus expression system at 10 uM incubated for 60 mins by Lanthascreen assay relative to control.
Test [20] concerns the target Activated CDC42 kinase 1 (Homo sapiens) (UniProt Q07912). The test is described as follows: Inhibition of tracer 236 binding to recombinant human GST-tagged TNK2 (110 to 476 residues) expressed in baculovirus expression system at 10 uM incubated for 60 mins by Lanthascreen assay relative to control.
Test [21] concerns the target BDNF/NT-3 growth factors receptor (Homo sapiens) (UniProt Q16620). The test is described as follows: Inhibition of recombinant human His-tagged TRKB (526 to 838 residues) expressed in baculovirus expression system using Tyr 01 as substrate at 10 uM incubated for 60 mins by Z'-Lyte assay relative to control.
Test [22] deals with Ribosomal protein S6 kinase beta-1 (Homo sapiens) (UniProt P23443). The test is described as follows: Inhibition of recombinant human GST-tagged p70S6K (1 to 421 residues) expressed in baculovirus expression system using Ser/Thr 07 as substrate at 10 uM incubated for 60 mins by Z'-Lyte assay relative to control.
Test [23] addresses Leukocyte tyrosine kinase receptor (Homo sapiens) (UniProt P29376). The test is described as follows: Inhibition of recombinant human GST-tagged LTK (450 to 864 residues) expressed in baculovirus expression system using Tyr 06 as substrate at 10 uM incubated for 60 mins by Z'-Lyte assay relative to control.

Receptor-interacting serine/threonine-protein kinase 2 (Homo sapiens), sequence (O43353 whole entry, the tested form may be a part): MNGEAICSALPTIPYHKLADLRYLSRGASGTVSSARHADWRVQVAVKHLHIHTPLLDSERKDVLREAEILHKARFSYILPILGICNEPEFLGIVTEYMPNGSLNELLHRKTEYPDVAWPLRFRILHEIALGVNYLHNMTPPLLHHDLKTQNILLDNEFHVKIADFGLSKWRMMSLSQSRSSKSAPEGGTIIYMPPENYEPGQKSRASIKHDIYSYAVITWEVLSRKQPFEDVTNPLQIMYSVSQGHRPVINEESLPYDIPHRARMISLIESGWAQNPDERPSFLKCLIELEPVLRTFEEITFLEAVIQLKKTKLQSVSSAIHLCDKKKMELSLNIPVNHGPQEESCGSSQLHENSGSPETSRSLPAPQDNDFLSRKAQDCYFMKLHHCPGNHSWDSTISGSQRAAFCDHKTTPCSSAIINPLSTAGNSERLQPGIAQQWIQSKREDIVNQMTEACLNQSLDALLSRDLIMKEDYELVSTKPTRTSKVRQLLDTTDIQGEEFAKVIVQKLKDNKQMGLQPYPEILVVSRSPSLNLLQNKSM
Leukocyte tyrosine kinase receptor (Homo sapiens), sequence (P29376 whole entry, the tested form may be a part): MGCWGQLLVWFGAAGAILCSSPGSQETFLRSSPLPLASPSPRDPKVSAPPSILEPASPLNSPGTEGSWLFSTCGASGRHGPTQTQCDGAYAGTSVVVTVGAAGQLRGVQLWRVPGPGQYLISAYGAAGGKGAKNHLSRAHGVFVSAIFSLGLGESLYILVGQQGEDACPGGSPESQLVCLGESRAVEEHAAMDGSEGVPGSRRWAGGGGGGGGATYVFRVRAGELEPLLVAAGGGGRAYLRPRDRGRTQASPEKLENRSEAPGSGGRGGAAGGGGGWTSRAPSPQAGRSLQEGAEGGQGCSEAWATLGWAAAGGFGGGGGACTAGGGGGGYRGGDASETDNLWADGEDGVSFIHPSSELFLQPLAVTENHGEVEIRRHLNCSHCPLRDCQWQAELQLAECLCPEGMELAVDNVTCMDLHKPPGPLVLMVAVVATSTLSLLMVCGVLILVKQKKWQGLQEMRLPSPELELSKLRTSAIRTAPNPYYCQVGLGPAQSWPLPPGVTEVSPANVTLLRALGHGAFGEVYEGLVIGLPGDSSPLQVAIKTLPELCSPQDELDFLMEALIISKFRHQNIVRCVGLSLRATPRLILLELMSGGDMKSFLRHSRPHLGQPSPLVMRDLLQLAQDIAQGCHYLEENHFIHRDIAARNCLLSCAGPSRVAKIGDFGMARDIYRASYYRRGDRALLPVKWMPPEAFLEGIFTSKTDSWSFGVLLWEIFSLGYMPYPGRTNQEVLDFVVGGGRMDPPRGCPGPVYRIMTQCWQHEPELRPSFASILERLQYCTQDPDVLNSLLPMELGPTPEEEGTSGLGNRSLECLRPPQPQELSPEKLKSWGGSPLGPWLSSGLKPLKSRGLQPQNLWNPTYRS
Activated CDC42 kinase 1 (Homo sapiens), sequence (Q07912 whole entry, looked up, the tested form may be a part): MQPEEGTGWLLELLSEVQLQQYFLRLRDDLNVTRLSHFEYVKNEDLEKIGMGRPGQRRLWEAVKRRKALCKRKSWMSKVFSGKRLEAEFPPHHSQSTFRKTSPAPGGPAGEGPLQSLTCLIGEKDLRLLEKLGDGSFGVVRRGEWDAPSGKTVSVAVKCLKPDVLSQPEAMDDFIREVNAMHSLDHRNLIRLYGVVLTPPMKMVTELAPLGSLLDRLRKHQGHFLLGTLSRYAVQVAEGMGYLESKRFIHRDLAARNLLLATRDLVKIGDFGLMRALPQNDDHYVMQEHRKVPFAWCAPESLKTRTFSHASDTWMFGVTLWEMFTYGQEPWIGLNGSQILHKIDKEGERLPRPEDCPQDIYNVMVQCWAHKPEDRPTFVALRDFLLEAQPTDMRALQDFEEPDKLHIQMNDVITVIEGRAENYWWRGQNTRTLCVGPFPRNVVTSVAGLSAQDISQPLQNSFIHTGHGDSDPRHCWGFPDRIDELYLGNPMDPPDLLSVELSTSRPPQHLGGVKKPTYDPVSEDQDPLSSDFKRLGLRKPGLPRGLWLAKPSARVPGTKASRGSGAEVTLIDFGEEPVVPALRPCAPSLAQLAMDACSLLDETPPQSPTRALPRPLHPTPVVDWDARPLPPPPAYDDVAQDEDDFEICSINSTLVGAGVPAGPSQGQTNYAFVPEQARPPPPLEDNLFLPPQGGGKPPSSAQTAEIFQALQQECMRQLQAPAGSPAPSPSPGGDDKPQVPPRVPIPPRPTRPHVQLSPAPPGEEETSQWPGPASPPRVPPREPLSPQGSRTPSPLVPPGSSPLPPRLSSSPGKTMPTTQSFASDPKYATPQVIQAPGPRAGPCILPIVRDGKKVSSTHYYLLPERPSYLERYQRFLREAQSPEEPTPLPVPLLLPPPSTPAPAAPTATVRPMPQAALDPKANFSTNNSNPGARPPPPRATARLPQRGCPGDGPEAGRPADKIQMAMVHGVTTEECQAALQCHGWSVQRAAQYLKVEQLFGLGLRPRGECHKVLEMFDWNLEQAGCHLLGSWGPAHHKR
Homeodomain-interacting protein kinase 1 (Homo sapiens), sequence (Q86Z02 whole entry, looked up, the tested form may be a part): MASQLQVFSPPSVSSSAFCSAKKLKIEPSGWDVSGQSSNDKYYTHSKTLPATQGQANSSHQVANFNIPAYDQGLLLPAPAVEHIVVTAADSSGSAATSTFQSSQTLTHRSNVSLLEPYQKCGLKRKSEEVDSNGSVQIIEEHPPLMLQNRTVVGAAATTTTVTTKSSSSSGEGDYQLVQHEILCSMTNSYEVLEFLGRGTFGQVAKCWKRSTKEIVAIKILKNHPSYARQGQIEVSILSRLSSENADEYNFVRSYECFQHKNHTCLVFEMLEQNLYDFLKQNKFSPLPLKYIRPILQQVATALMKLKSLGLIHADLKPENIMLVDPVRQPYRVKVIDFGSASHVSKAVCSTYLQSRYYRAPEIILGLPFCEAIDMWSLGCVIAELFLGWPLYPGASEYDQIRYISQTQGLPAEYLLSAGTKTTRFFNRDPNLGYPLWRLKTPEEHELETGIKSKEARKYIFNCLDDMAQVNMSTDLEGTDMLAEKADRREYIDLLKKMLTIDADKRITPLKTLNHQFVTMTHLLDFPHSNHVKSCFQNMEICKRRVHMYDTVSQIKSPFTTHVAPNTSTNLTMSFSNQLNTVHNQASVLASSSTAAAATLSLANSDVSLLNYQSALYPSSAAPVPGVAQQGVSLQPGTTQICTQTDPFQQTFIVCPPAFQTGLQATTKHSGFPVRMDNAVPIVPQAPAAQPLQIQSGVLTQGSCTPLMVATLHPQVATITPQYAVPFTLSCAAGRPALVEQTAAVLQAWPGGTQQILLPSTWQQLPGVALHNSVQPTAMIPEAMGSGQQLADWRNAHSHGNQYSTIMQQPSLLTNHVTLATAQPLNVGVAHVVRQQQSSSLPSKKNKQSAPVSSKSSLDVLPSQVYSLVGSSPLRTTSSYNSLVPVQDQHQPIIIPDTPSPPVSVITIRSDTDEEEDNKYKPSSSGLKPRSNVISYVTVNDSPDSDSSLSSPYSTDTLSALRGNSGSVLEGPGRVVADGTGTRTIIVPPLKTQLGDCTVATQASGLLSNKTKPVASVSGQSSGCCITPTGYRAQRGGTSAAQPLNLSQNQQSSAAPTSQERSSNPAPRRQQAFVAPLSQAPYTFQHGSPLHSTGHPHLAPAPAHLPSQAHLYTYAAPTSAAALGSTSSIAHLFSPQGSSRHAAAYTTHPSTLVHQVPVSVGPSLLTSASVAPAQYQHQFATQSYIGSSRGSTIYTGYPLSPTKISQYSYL
Tyrosine-protein kinase Fes/Fps (Homo sapiens), sequence (P07332 whole entry, the tested form may be a part): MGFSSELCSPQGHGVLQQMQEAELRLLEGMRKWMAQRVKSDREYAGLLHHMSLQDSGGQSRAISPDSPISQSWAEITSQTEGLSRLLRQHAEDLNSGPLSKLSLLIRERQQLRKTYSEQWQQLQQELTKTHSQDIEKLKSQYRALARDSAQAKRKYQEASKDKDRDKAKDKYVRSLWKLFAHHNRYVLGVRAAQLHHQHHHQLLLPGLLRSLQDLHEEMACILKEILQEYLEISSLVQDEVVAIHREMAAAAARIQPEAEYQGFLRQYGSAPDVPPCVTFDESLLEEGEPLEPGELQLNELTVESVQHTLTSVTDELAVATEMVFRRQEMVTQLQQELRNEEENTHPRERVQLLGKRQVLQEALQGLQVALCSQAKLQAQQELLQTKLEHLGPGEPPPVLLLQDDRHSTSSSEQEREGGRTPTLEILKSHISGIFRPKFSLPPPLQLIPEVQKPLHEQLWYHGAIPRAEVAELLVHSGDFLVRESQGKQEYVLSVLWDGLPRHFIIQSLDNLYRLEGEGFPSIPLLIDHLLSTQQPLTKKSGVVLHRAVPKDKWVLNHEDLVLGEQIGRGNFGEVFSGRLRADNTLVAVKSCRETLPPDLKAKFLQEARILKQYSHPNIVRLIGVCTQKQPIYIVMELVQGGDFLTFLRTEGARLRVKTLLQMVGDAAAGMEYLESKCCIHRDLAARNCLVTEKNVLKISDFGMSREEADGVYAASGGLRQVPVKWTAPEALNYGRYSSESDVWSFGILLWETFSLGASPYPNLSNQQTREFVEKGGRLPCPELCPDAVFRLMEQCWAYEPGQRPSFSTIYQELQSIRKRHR
Casein kinase I isoform epsilon (Homo sapiens), sequence (P49674 whole entry, looked up, canonical isoform): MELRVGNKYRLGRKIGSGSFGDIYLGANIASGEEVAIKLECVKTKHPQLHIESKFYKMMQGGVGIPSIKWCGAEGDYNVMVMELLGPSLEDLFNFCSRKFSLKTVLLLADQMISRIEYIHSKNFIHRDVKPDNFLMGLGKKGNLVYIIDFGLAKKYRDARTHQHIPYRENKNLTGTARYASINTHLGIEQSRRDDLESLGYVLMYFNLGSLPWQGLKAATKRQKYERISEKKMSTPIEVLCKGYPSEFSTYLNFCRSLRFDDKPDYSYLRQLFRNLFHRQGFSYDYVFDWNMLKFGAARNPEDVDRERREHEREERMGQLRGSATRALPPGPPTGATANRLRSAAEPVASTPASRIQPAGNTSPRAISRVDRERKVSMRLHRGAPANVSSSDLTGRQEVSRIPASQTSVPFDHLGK

`CN1C(=O)[C@@H](NC(=O)c2n[nH]c3ncc(C(F)(F)C(F)(F)F)cc23)COc2ccccc21`: the EC50 in test [1] was 11 µM. For the same molecule, the inhibition in [2] was 6.5%; in [3] it was 1.5%; in test [4] it was 5%; in test [5], -1%; in test [6] it was -3.5%; in test [7] it was 4.5%. Also, the inhibition in [8] is 7%; in test [9], 5.5%; in test [10], 5%; in test [11], 0.5%; in [12], -3.5%; in [13] it was 7%. For the same molecule, the inhibition in test [14] was 1%; in test [15], 13.5%; in test [16] it was 4%; in the test filed under Homo sapiens, -1%; in test [17] it was -6%; in test [18] it was -1%. The inhibition in test [19] is -4.5%; in [20] it was 1.5%; in [21], 0.5%; in test [22] it was 6.5%; in test [23], 2%.

What is called EC50 is the concentration at which the effect is half-maximal. As usually defined, the inhibition is the relative decrease from the control value, in per cent.

For the origin of these results see ChEMBL document CHEMBL4665648, “Potent and selective inhibitors of receptor-interacting protein kinase 1 that lack an aromatic back pocket group” (Bioorg Med Chem Lett, 2019).
